In this assay the target is T1, human V1a receptor (Homo sapiens, UniProt P37288).
T1 construct: host or cells: CHO cells
The experiment in a line: Human vasopressin V1a receptor binding assay. The note with it: hV1a CHO cell line, competition with 1 nM 3H-AVP; for pIC50: read-out: V1a Binding Affinity IC50; for pKi: read-out: V1a Ki. Here is the method:
EXAMPLE. Human vasopressin V1a receptor binding assay. A cell line expressing the human V1a receptor in CHO cells (henceforth referred to as the hV1a cell line) was obtained from Dr. Michael Brownstein, NIMH, Bethesda, Md., USA. The hV1a cDNA sequence is described by Thibonnier et al., Journal of Biological Chemistry, 269, 3304-3310 (1994), and the expression method was the same as described by Morel et al. (1992). The hV1a cell line was grown in alpha-MEM with 10% fetal bovine serum and 250 ug/ml G418 (Gibco, Grand Island, N.Y., USA). For competitive binding assay, hV1a cells were plated into 6-well culture plate at 1:10 dilution from a confluency flask, and maintained in culture for at least two days. Culture medium was then removed, cells were washed with 2 ml binding buffer (25 mM Hepes, 0.25% BSA, 1×DMEM, PH=7.0). To each well, 990 μl binding buffer containing 1 nM 3H-AVP was added, and followed by 10 μl series diluted Example compounds dissolved in DMSO. […] 100 nM cold AVP (Sigma) was used to assess non-specific binding. Cells were incubated for 45 minutes at 37° C., assay mixture was removed and each well was washed three times with PBS (pH=7.4). 1 ml 2% SDS was added per well and plates were let sit for 30 minutes. The whole content in a well was transferred to a scintillation vial. Each well was rinsed with 0.5 ml PBS which was then added to the corresponding vial. Scintillation fluid (Ecoscint, National Diagnostics, Atlanta, Ga.) was then added at 3 ml per vial. Samples were counted in a liquid scintillation counter (Beckman LS3801). IC50 values were calculated by Prism Curve fitting software.
All of the alkanedioic esters and amides exemplified in the foregoing examples dissolved in DMSO were tested in this assay. Binding curves were generated according to methods described by Thibonnier et al. (1994). [^3H]-AVP was added to the hV1a cell cultures followed by 10-fold dilutions of each test compound.

Among the data in patent publication US11628160B2, “Compositions and methods for treating brain injury” (Azevan Pharmaceuticals, Inc., priority 2017, dated 2023) are IC50 and Ki values, retold here.

pIC50, pKi: −log10 of the molar value.

T1 sequence (P37288 whole entry): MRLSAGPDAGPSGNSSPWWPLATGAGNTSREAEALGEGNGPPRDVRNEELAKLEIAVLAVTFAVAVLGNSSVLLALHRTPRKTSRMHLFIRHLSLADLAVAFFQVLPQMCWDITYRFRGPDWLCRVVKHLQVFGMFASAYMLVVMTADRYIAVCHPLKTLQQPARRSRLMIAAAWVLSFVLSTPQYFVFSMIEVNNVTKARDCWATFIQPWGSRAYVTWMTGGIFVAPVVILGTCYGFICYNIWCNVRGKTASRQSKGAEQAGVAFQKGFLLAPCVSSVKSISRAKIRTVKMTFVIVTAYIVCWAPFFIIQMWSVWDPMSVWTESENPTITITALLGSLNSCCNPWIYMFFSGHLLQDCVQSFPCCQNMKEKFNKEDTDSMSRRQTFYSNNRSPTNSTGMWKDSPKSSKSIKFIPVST

With “(2S)-[(4-cyclohexylpiperazinyl)carbonylethyl]-2-[3(S)-(4(S)-phenyloxazolidin-2-on-3-yl)-4(R)-(2-phenyleth-1-yl)azetidin-2-on-1-yl]acetic acid N—[(R)-1,2,3,4-tetrahydronaphth-1-yl]amide [Example 236A]”, the pIC50 was 8.05 and the pKi is 8.26.
Regarding `Cc1cccc(CCC2C(N3C(=O)OCC3c3ccccc3)C(=O)N2C(CC(=O)N2CCC(N3CCCCC3)CC2)C(=O)NC(C)c2ccccc2)c1` (stereo not shown) [Example 778], the pKi is 9.20.
For the compound `CC(NC(=O)C(CC(=O)N1CCC(N2CCCCC2)CC1)N1C(=O)C(N2C(=O)OCC2c2ccccc2)C1CCc1ccc(O)cc1)c1ccccc1` (stereo not shown) [Example 594], the pKi is 7.72.
With `Cc1ccccc1C(C)(C)NC(=O)C(CCC(=O)N1CCN(C2CCCCC2)CC1)N1C(=O)C(N2C(=O)OCC2c2ccccc2)C1C=Cc1ccccc1` (stereo not shown) [Example 221], the pIC50 was 8.29.
In the case of `O=C(NC1CCCc2ccccc21)C(CCC(=O)N1CCN(C2CCCCC2)CC1)N1C(=O)C(N2C(=O)OCC2c2ccccc2)C1C=Cc1ccccc1Cl` (stereo not shown) [Example 250], the pIC50 is 8.19 and the pKi was 8.40.
Turning to `O=C(NC1Cc2ccccc2C1)C(CCC(=O)N1CCN(C2CCCCC2)CC1)N1C(=O)C(N2C(=O)OCC2c2ccccc2)C1C=Cc1ccccc1` (stereo not shown) [Example 221P], the pIC50 is 8.77 and the pKi was 8.96.
Take `O=C(NCc1ccccc1Br)C(CC(=O)N1CCC(N2CCCCC2)CC1)N1C(=O)C(N2C(=O)OCC2c2ccccc2)C1CCc1ccccc1` (stereo not shown) [Example 682]: the pKi was 9.05.
In the case of `CC(NC(=O)C(CC(=O)N1CCC(N2CCCCC2)CC1)N1C(=O)C(N2C(=O)OCC2c2ccccc2)C1CCc1cccc([N+](=O)[O-])c1)c1ccccc1` (stereo not shown) [Example 597], the pIC50 was 8.21 and the pKi is 8.42.
The matching figures for `O=C(NCCc1ccccc1)C(CCC(=O)N1CCN(C2CCCCC2)CC1)N1C(=O)C(N2C(=O)OCC2c2ccccc2)C1C=Cc1ccccc1` (stereo not shown) [Example 200]: 8.29 and 8.51.
For the compound `CCCCN(Cc1ccccc1)C(=O)[C@H](CCC(=O)N1CCN(C2CCCCC2)CC1)N1C(=O)[C@@H](N2C(=O)OC[C@@H]2c2ccccc2)[C@H]1/C=C/c1ccccc1` [Example 198], the pIC50 is around 7.00.
Take `CN(Cc1cccc(C(F)(F)F)c1)C(=O)C(CCC(=O)N1CCN(C2CCCCC2)CC1)N1C(=O)C(N2C(=O)OCC2c2ccccc2)C1C=Cc1ccccc1` (stereo not shown) [Example 205]: the pIC50 was 9.47 and the pKi is 9.68.
As to `O=C(NC(c1ccccc1)C(F)(F)F)C(CC(=O)N1CCC(N2CCCCC2)CC1)N1C(=O)C(N2C(=O)OCC2c2ccccc2)C1CCc1ccccc1` (stereo not shown) [Example 626], the pKi is 9.57.
Consider `CCN1CCCC1CNC(=O)CCC(C(=O)NC1CCCc2ccccc21)N1C(=O)C(N2C(=O)OCC2c2ccccc2)C1C=Cc1ccccc1` (stereo not shown) [Example 221AI], for which the negative-log IC50 (pIC50) was around 7.30.
Consider `O=C(C(COCc1ccccc1)N1C(=O)C(N2C(=O)OCC2c2ccccc2)C1C=Cc1ccccc1)N1CCC(CN2CCCCC2)CC1` (stereo not shown) [Example 232E], for which the pIC50 is 9.55 and the pKi is 9.77.
`O=C(NC1CCCc2ccccc21)C(CCC(=O)N1CCN(C2CCCCC2)CC1)N1C(=O)C(N2C(=O)OCC2c2ccccc2)C1C=Cc1cccc(Cl)c1` (stereo not shown) [Example 243]: the pIC50 is 9.30 and the pKi is 9.52.
The matching figures for `O=C(NC1CCCc2ccccc21)C(CCC(=O)N1CCN(C2CCCCC2)CC1)N1C(=O)C(N2C(=O)OCC2c2ccccc2)C1C=Cc1cccc([N+](=O)[O-])c1` (stereo not shown) [Example 249]: 8.77 and 9.00.
In the case of `COc1cc(OC)cc(C(C)(C)NC(=O)C(CCC(=O)N2CCN(C3CCCCC3)CC2)N2C(=O)C(N3C(=O)OCC3c3ccccc3)C2C=Cc2ccccc2)c1` (stereo not shown) [Example 218], the pIC50 is 8.11 and the negative logarithm of the Ki (pKi) was 8.33.
Turning to `CN(Cc1cccc(C(F)(F)F)c1)C(=O)C(CC(=O)N1CCC(N2CCCCC2)CC1)N1C(=O)C(N2C(=O)OCC2c2ccccc2)C1CCc1cccc(Br)c1` (stereo not shown) [Example 617], the pKi was 9.16.
For `O=C(NC1CCCc2ccccc21)C(CCC(=O)N1CCN(C2CCCCC2)CC1)N1C(=O)C(N2C(=O)OCC2c2cccc(Cl)c2)C1C=Cc1cccc(Cl)c1` (stereo not shown) [Example 251], the pIC50 was 9.30 and the pKi was 9.52.
For the compound `O=C(NCc1ccncc1)C(CCC(=O)N1CCN(C2CCCCC2)CC1)N1C(=O)C(N2C(=O)OCC2c2ccccc2)C1C=Cc1ccccc1` (stereo not shown) [Example 210], the pIC50 was 7.53 and the pKi is 7.74.
Turning to `O=C(NCc1cccc([N+](=O)[O-])c1)C(CCC(=O)N1CCN(C2CCCCC2)CC1)N1C(=O)C(N2C(=O)OCC2c2ccccc2)C1C=Cc1ccccc1` (stereo not shown) [Example 189], the negative-log IC50 (pIC50) was 8.77 and the pKi is 8.98.
The matching figures for `O=C(NCc1cc(F)cc(C(F)(F)F)c1)C(CCC(=O)N1CCN(C2CCCCC2)CC1)N1C(=O)C(N2C(=O)OCC2c2ccccc2)C1C=Cc1ccccc1` (stereo not shown) [Example 179]: 9.09 and 9.29.
`O=C(NC1CCCc2ccccc21)C(CCC(=O)N1CCN(C2CCCCC2)CC1)N1C(=O)C(N2C(=O)OCC2c2ccccc2)C1C=Cc1cccc(F)c1` (stereo not shown) [Example 245]: the pIC50 was 8.96 and the pKi is 9.17.
With `O=C(NCc1cccnc1)C(CCC(=O)N1CCN(C2CCCCC2)CC1)N1C(=O)C(N2C(=O)OCC2c2ccccc2)C1C=Cc1ccccc1` (stereo not shown) [Example 209], the negative logarithm of the IC50 (pIC50) is 7.80 and the pKi is 8.01.
`CC(NC(=O)C(CCC(=O)N1CCN(C2CCCCC2)CC1)N1C(=O)C(N2C(=O)OCC2c2ccccc2)C1C=Cc1ccccc1)c1ccccc1` (stereo not shown) [Example 206]: the pIC50 was 8.80 and the pKi is 9.01.
The matching figures for `N#Cc1cccc(C=CC2C(N3C(=O)OCC3c3ccccc3)C(=O)N2C(CCC(=O)N2CCN(C3CCCCC3)CC2)C(=O)NC2CCCc3ccccc32)c1` (stereo not shown) [Example 248]: 8.28 and 8.48.
The matching figures for `O=C(NCc1cccc(Cl)c1)C(CCC(=O)N1CCN(C2CCCCC2)CC1)N1C(=O)C(N2C(=O)OCC2c2ccccc2)C1C=Cc1ccccc1` (stereo not shown) [Example 187]: 9.00 and 9.18.
The matching figures for `O=C(NCc1cccc(Br)c1)C(CCC(=O)N1CCN(C2CCCCC2)CC1)N1C(=O)C(N2C(=O)OCC2c2ccccc2)C1C=Cc1ccccc1` (stereo not shown) [Example 190]: 9.06 and 9.27.
On to `O=C(NC1(c2ccccc2)CCCC1)C(CCC(=O)N1CCN(C2CCCCC2)CC1)N1C(=O)C(N2C(=O)OCC2c2ccccc2)C1C=Cc1ccccc1` (stereo not shown) [Example 217], for which the negative logarithm of the IC50 (pIC50) was 8.50 and the pKi is 8.71.
For the compound `CC(NC(=O)C(CC(=O)N1CCC(N2CCCCC2)CC1)N1C(=O)C(N2C(=O)OCC2c2cccc(Cl)c2)C1C=Cc1ccccc1)c1ccccc1` (stereo not shown) [Example 256], the pIC50 is 8.55 and the pKi is 8.77.
Consider `C[C@@H](NC(=O)[C@H](CCC(=O)N1CCN(C2CCCCC2)CC1)N1C(=O)[C@@H](N2C(=O)OC[C@@H]2c2ccccc2)[C@H]1/C=C/c1ccccc1)c1cccc(C(F)(F)F)c1` [Example 221F], for which the pIC50 is 8.77 and the pKi was 8.98.
Take `O=C(NCc1ccccc1F)C(CC(=O)N1CCC(N2CCCCC2)CC1)N1C(=O)C(N2C(=O)OCC2c2ccccc2)C1CCc1ccccc1` (stereo not shown) [Example 677]: the pKi was 8.52.
Turning to `O=C(NCc1cccc(C(F)(F)F)c1)C(CCC(=O)N1CCN(C2CCCCC2)CC1)N1C(=O)C(N2C(=O)OCC2c2ccccc2)C1C=Cc1ccccc1` (stereo not shown) [Example 120H], the pIC50 is 8.56 and the pKi was 8.77.
The matching figures for `CC(NC(=O)C(CC(=O)N1CCC(N2CCCCC2)CC1)N1C(=O)C(N2C(=O)OCC2c2ccccc2)C1CCc1cccc(N)c1)c1ccccc1` (stereo not shown) [Example 600]: 7.84 and 8.06.
The matching figures for `O=C(NC1(c2ccccc2)CCCC1)C(CCC(=O)N1CCN(Cc2ccccc2)CC1)N1C(=O)C(N2C(=O)OCC2c2ccccc2)C1C=Cc1ccccc1` (stereo not shown) [Example 240]: 7.60 and 7.81.
The matching figures for `O=C(NCc1cccc(Cl)c1Cl)C(CCC(=O)N1CCN(C2CCCCC2)CC1)N1C(=O)C(N2C(=O)OCC2c2ccccc2)C1C=Cc1ccccc1` (stereo not shown) [Example 176]: 9.21 and 9.42.
For the compound `O=C(NCc1ccccc1)C(CCC(=O)N1CCN(C2CCCCC2)CC1)N1C(=O)C(N2C(=O)OCC2c2ccccc2)C1C=Cc1ccccc1` (stereo not shown) [Example 191], the pIC50 was 8.53 and the pKi was 8.75.
The matching figures for `Cc1cccc(CNC(=O)C(CCC(=O)N2CCN(C3CCCCC3)CC2)N2C(=O)C(N3C(=O)OCC3c3ccccc3)C2C=Cc2ccccc2)c1` (stereo not shown) [Example 193]: 8.93 and 9.14.
